Reference: ChEMBL document CHEMBL1201862, “PubChem BioAssay data set” (2004)
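Growth conditions: 96-well plates. Treatment: test compound, 48 hours, 5 concentrations. Analysis: linear interpolation between bracketing concentrations; unreached endpoints set to highest concentration. GI50 = concentration required for 50% inhibition of growth.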 Activity calls are given as the source filed them. Cut-off read from the data, not from the text of the source: active = GI50 up to about 1.1 µM and inactive = higher.

Experiments:
Test in all cases: NCI tumour cell line growth inhibition, 48 h
A549 = test system: A549
CCRF-CEM = test system: CCRF-CEM
LOX IMVI = test system: LOX IMVI
OVCAR-4 = test system: OVCAR-4
NCI-H23 = test system: NCI-H23
U-251 = test system: U-251
MDA-MB-435 = test system: MDA-MB-435
UACC-62 = test system: UACC-62
HOP-92 = test system: HOP-92
IGROV-1 = test system: IGROV-1
SK-MEL-5 = test system: SK-MEL-5
NCI/ADR-RES = test system: NCI/ADR-RES
HCT-116 = test system: HCT-116
CAKI-1 = test system: CAKI-1
SF-295 = test system: SF-295
T47D = test system: T47D
SNB-75 = test system: SNB-75
TK-10 = test system: TK-10
NCI-H460 = test system: NCI-H460
MOLT-4 = test system: MOLT-4

O=C(C[n+]1ccc2ccccc2c1)c1ccc2ccc3ccccc3c2c1
GI50 (A549): 3.23 µM (inactive)
GI50 (CCRF-CEM): 0.815 µM (active)
GI50 (LOX IMVI): 1.08 µM (active)
GI50 (OVCAR-4): 3.84 µM (inactive)
GI50 (NCI-H23): 2.38 µM (inactive)
GI50 (U-251): 2.21 µM (inactive)
GI50 (MDA-MB-435): 0.841 µM (active)
GI50 (UACC-62): 2.99 µM (inactive)
GI50 (HOP-92): 1.62 µM (inactive)
GI50 (IGROV-1): 2.23 µM (inactive)
GI50 (SK-MEL-5): 3.03 µM (inactive)
GI50 (NCI/ADR-RES): 15.2 µM (inactive)
GI50 (HCT-116): 0.959 µM (active)
GI50 (CAKI-1): 4.9 µM (inactive)
GI50 (SF-295): 0.824 µM (active)
GI50 (T47D): 4.74 µM (inactive)
GI50 (SNB-75): 5.85 µM (inactive)
GI50 (TK-10): 1.4 µM (inactive)
GI50 (NCI-H460): 0.741 µM (active)

NNC(=O)CNc1cccc(Br)c1
GI50 (A549): > 100 µM (inactive)
GI50 (LOX IMVI): > 100 µM (inactive)
GI50 (OVCAR-4): > 100 µM (inactive)
GI50 (NCI-H23): > 100 µM (inactive)
GI50 (U-251): > 100 µM (inactive)
GI50 (MDA-MB-435): > 100 µM (inactive)
GI50 (UACC-62): > 100 µM (inactive)
GI50 (HOP-92): > 100 µM (inactive)
GI50 (IGROV-1): > 100 µM (inactive)
GI50 (SK-MEL-5): > 100 µM (inactive)
GI50 (NCI/ADR-RES): > 100 µM (inactive)
GI50 (HCT-116): > 100 µM (inactive)
GI50 (CAKI-1): > 100 µM (inactive)
GI50 (SF-295): > 100 µM (inactive)
GI50 (T47D): > 100 µM (inactive)
GI50 (SNB-75): > 100 µM (inactive)
GI50 (TK-10): > 100 µM (inactive)
GI50 (NCI-H460): > 100 µM (inactive)

O=C(/C=C/c1ccccc1)CCc1c(O)c2ccccc2oc1=O
GI50 (A549): 83.8 µM (inactive)
GI50 (CCRF-CEM): 45.4 µM (inactive)
GI50 (LOX IMVI): 52.5 µM (inactive)
GI50 (OVCAR-4): 76.9 µM (inactive)
GI50 (NCI-H23): 65.5 µM (inactive)
GI50 (U-251): 50.9 µM (inactive)
GI50 (MDA-MB-435): 67.9 µM (inactive)
GI50 (UACC-62): 71 µM (inactive)
GI50 (HOP-92): 18 µM (inactive)
GI50 (MOLT-4): 27.7 µM (inactive)
GI50 (IGROV-1): > 100 µM (inactive)
GI50 (SK-MEL-5): 80.5 µM (inactive)
GI50 (NCI/ADR-RES): > 100 µM (inactive)
GI50 (HCT-116): 35.7 µM (inactive)
GI50 (CAKI-1): > 100 µM (inactive)
GI50 (SF-295): > 100 µM (inactive)
GI50 (T47D): > 100 µM (inactive)
GI50 (SNB-75): > 100 µM (inactive)
GI50 (NCI-H460): 87.9 µM (inactive)

C=CC[C@@]1([C@H](C=C)COCc2ccc(OC)cc2)CC[C@]2(C)OC(C)(C)[C@@H](c3ccccc3)N2C1=S
GI50 (A549): 60.8 µM (inactive)
GI50 (CCRF-CEM): 46.5 µM (inactive)
GI50 (LOX IMVI): 40.8 µM (inactive)
GI50 (OVCAR-4): 40.7 µM (inactive)
GI50 (NCI-H23): 40.4 µM (inactive)
GI50 (U-251): 34.2 µM (inactive)
GI50 (MDA-MB-435): > 100 µM (inactive)
GI50 (UACC-62): 28.2 µM (inactive)
GI50 (HOP-92): 30 µM (inactive)
GI50 (MOLT-4): 52.4 µM (inactive)
GI50 (SK-MEL-5): 25.2 µM (inactive)
GI50 (NCI/ADR-RES): > 100 µM (inactive)
GI50 (HCT-116): 35.9 µM (inactive)
GI50 (CAKI-1): > 100 µM (inactive)
GI50 (SF-295): 43.1 µM (inactive)
GI50 (T47D): 37.3 µM (inactive)
GI50 (SNB-75): 60.1 µM (inactive)
GI50 (TK-10): 52.7 µM (inactive)
GI50 (NCI-H460): 44.4 µM (inactive)

COC(=O)[C@]1(C)CCC[C@@]2(C)[C@@H]3C[C@@H]4[C@H]5C[C@@]3(CC[C@@H]21)C[C@@]45C
GI50 (A549): 14.1 µM (inactive)
GI50 (CCRF-CEM): 18 µM (inactive)
GI50 (LOX IMVI): 19.7 µM (inactive)
GI50 (OVCAR-4): 13.8 µM (inactive)
GI50 (NCI-H23): 14.6 µM (inactive)
GI50 (U-251): 24 µM (inactive)
GI50 (MDA-MB-435): 18.3 µM (inactive)
GI50 (UACC-62): 14.8 µM (inactive)
GI50 (HOP-92): 15.2 µM (inactive)
GI50 (MOLT-4): 14.5 µM (inactive)
GI50 (IGROV-1): 19.3 µM (inactive)
GI50 (SK-MEL-5): 17.2 µM (inactive)
GI50 (NCI/ADR-RES): 15.7 µM (inactive)
GI50 (HCT-116): 20 µM (inactive)
GI50 (CAKI-1): 16.4 µM (inactive)
GI50 (SF-295): 15.2 µM (inactive)
GI50 (T47D): 23.2 µM (inactive)
GI50 (SNB-75): 17.7 µM (inactive)
GI50 (TK-10): 15.1 µM (inactive)

CC(C)(C)C(=O)C(C(=O)c1ccccc1)C(=O)C(C)(C)C
GI50 (A549): > 100 µM (inactive)
GI50 (CCRF-CEM): > 100 µM (inactive)
GI50 (LOX IMVI): > 100 µM (inactive)
GI50 (OVCAR-4): 64.7 µM (inactive)
GI50 (NCI-H23): > 100 µM (inactive)
GI50 (U-251): > 100 µM (inactive)
GI50 (MDA-MB-435): > 100 µM (inactive)
GI50 (HOP-92): > 100 µM (inactive)
GI50 (MOLT-4): > 100 µM (inactive)
GI50 (IGROV-1): > 100 µM (inactive)
GI50 (SK-MEL-5): > 100 µM (inactive)
GI50 (NCI/ADR-RES): 30.5 µM (inactive)
GI50 (HCT-116): 56.1 µM (inactive)
GI50 (CAKI-1): > 100 µM (inactive)
GI50 (SF-295): > 100 µM (inactive)
GI50 (T47D): > 100 µM (inactive)
GI50 (SNB-75): > 100 µM (inactive)
GI50 (TK-10): > 100 µM (inactive)
GI50 (NCI-H460): > 100 µM (inactive)

CS(=O)(=O)c1ccc(/C=N/NC(N)=S)cc1
GI50 (A549): > 100 µM (inactive)
GI50 (LOX IMVI): > 100 µM (inactive)
GI50 (OVCAR-4): > 100 µM (inactive)
GI50 (NCI-H23): > 100 µM (inactive)
GI50 (U-251): > 100 µM (inactive)
GI50 (MDA-MB-435): > 100 µM (inactive)
GI50 (UACC-62): > 100 µM (inactive)
GI50 (HOP-92): > 100 µM (inactive)
GI50 (MOLT-4): > 100 µM (inactive)
GI50 (IGROV-1): > 100 µM (inactive)
GI50 (SK-MEL-5): > 100 µM (inactive)
GI50 (NCI/ADR-RES): > 100 µM (inactive)
GI50 (HCT-116): > 100 µM (inactive)
GI50 (CAKI-1): > 100 µM (inactive)
GI50 (SF-295): > 100 µM (inactive)
GI50 (T47D): > 100 µM (inactive)
GI50 (SNB-75): > 100 µM (inactive)
GI50 (TK-10): > 100 µM (inactive)
GI50 (NCI-H460): > 100 µM (inactive)

Cc1ccsc1/C=N/Nc1ccc2ccccc2n1
GI50 (A549): 7.43 µM (inactive)
GI50 (CCRF-CEM): 27.5 µM (inactive)
GI50 (LOX IMVI): 24.2 µM (inactive)
GI50 (OVCAR-4): 29.7 µM (inactive)
GI50 (NCI-H23): 51.1 µM (inactive)
GI50 (U-251): 49 µM (inactive)
GI50 (MDA-MB-435): 56.5 µM (inactive)
GI50 (UACC-62): 25.1 µM (inactive)
GI50 (HOP-92): 17.9 µM (inactive)
GI50 (MOLT-4): 8.04 µM (inactive)
GI50 (IGROV-1): 8.26 µM (inactive)
GI50 (SK-MEL-5): 3.4 µM (inactive)
GI50 (NCI/ADR-RES): 30.5 µM (inactive)
GI50 (HCT-116): 28.1 µM (inactive)
GI50 (CAKI-1): 17.5 µM (inactive)
GI50 (SF-295): 11.1 µM (inactive)
GI50 (T47D): > 100 µM (inactive)
GI50 (SNB-75): 32.9 µM (inactive)
GI50 (TK-10): 19.9 µM (inactive)

CC(=O)OCC1OC(N2C(=O)/C(=C\c3ccc(Cl)cc3)C(N)=Nc3ccccc32)C(OC(C)=O)C(OC(C)=O)C1OC(C)=O (centres undefined)
GI50 (A549): 27.8 µM (inactive)
GI50 (LOX IMVI): 17.1 µM (inactive)
GI50 (OVCAR-4): 20.4 µM (inactive)
GI50 (NCI-H23): 25.9 µM (inactive)
GI50 (U-251): 14.6 µM (inactive)
GI50 (MDA-MB-435): 16 µM (inactive)
GI50 (UACC-62): 29.4 µM (inactive)
GI50 (HOP-92): 17.2 µM (inactive)
GI50 (MOLT-4): 6.43 µM (inactive)
GI50 (IGROV-1): 19.6 µM (inactive)
GI50 (SK-MEL-5): 12.7 µM (inactive)
GI50 (NCI/ADR-RES): 51.1 µM (inactive)
GI50 (HCT-116): 16.6 µM (inactive)
GI50 (CAKI-1): 37.3 µM (inactive)
GI50 (SF-295): 38.8 µM (inactive)
GI50 (T47D): 12.4 µM (inactive)
GI50 (SNB-75): 19.1 µM (inactive)
GI50 (TK-10): 28.1 µM (inactive)
GI50 (NCI-H460): 28.4 µM (inactive)

O=C1OCC2OC(=O)c3cc(O)c(O)c(O)c3-c3c(O)c(O)c(O)c4c3C(=O)OC(C2OC(=O)c2cc(O)c(O)c(O)c2-c2c1cc(O)c(O)c2O)C1OC(=O)c2c-4c(O)c(O)c(O)c2[C@@H]1C(O)C(O)C(O)C(O)CO (some centres undefined)
GI50 (A549): 16.4 µM (inactive)
GI50 (CCRF-CEM): 4.75 µM (inactive)
GI50 (LOX IMVI): 2.25 µM (inactive)
GI50 (OVCAR-4): 16.6 µM (inactive)
GI50 (NCI-H23): 19.2 µM (inactive)
GI50 (U-251): 20.4 µM (inactive)
GI50 (MDA-MB-435): 4.42 µM (inactive)
GI50 (UACC-62): 17.8 µM (inactive)
GI50 (HOP-92): 18.2 µM (inactive)
GI50 (MOLT-4): 20.4 µM (inactive)
GI50 (IGROV-1): 20 µM (inactive)
GI50 (SK-MEL-5): 14.1 µM (inactive)
GI50 (NCI/ADR-RES): 22.2 µM (inactive)
GI50 (HCT-116): 16.2 µM (inactive)
GI50 (CAKI-1): 13.6 µM (inactive)
GI50 (SF-295): 20.1 µM (inactive)
GI50 (T47D): 19.1 µM (inactive)
GI50 (SNB-75): < 0.01 µM (active)
GI50 (NCI-H460): 17.6 µM (inactive)
